In patent US11497212B2, “Substituted thiophenyl uracils, salts thereof and the use thereof as herbicidal agents” (Syngenta Crop Protection AG, priority 2017, dated 2022):

Experiments:
Assay type in all cases: in vivo
Abutilon theophrasti [1] = assay: Herbicidal action post-emergence (greenhouse pot trial); conditions: scored visually after about 3 weeks vs untreated controls
How it was run: (§1)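 Post-emergence spray at one-leaf stage (2–3 wk after sowing, sandy loam, greenhouse); WP/EC in water + 0.5% additive; 600 L/ha; rate 80 g/ha or less. Visual % efficacy at ~3 wk vs untreated (100 = dead).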

Alopecurus myosuroides [2] = assay: as above; conditions: application rate 80 g/ha, scored visually after about 3 weeks vs untreated controls
How it was run: as §1

Amaranthus retroflexus [3] = assay: as above; conditions: scored visually after about 3 weeks vs untreated controls
How it was run: as §1

Echinochloa crus-galli [4] = assay: as above; conditions: application rate 80 g/ha, scored visually after about 3 weeks vs untreated controls
How it was run: as §1

Lolium rigidum [5] = assay: as above; conditions: application rate 80 g/ha, scored visually after about 3 weeks vs untreated controls
How it was run: as §1

Matricaria inodora [6] = assay: as above; conditions: scored visually after about 3 weeks vs untreated controls
How it was run: as §1

Pharbitis purpurea [7] = assay: as above; conditions: application rate 80 g/ha
How it was run: as §1

Polygonum convolvulus [8] = assay: as above; conditions: scored visually after about 3 weeks vs untreated controls
How it was run: as §1

Setaria viridis [9] = assay: as above; conditions: application rate 80 g/ha, scored visually after about 3 weeks vs untreated controls
How it was run: as §1

Stellaria media [10] = assay: as above; conditions: application rate 80 g/ha, scored visually after about 3 weeks vs untreated controls
How it was run: as §1

Veronica persica [11] = assay: as above
How it was run: as §1

Viola tricolor [12] = assay: as above
How it was run: as §1

Glycine max [13] = assay: Crop compatibility post-emergence (greenhouse pot trial); conditions: application rate 5 g/ha
How it was run: (§2)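 Crops grown in sandy loam in greenhouse, sprayed at one-leaf stage (2–3 weeks after sowing) with WP or EC formulations in water plus 0.5% additive, 600 L/ha. Damage scored visually after about 3 weeks versus untreated controls, 0% = like control, 100% = dead.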

Oryza sativa [14] = assay: as above; conditions: application rate 20 g/ha
How it was run: as §2

Triticum aestivum = assay: as above; conditions: application rate 20 g/ha
How it was run: as §2

Zea mays [15] = assay: as above; conditions: application rate 20 g/ha
How it was run: as §2

Abutilon theophrasti [16] = assay: Herbicidal action pre-emergence (greenhouse pot trial); conditions: scored after about 3 weeks
How it was run: (§3)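 Pre-emergence soil-surface spray, 320 g/ha or lower, WP/EC formulations in water with 0.5% additive, 600 L/ha. Greenhouse, ~3 wk. Visual % efficacy vs untreated controls (100% = plants dead, 0% = like control).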

Alopecurus myosuroides [17] = assay: as above; conditions: application rate 320 g/ha, scored after about 3 weeks
How it was run: as §3

Amaranthus retroflexus [18] = assay: as above; conditions: scored after about 3 weeks
How it was run: as §3

Avena fatua = assay: as above; conditions: application rate 320 g/ha
How it was run: as §3

Cyperus esculentus = assay: as above; conditions: application rate 320 g/ha
How it was run: as §3

Echinochloa crus-galli [19] = assay: as above; conditions: application rate 320 g/ha, scored after about 3 weeks
How it was run: as §3

Hordeum murinum = assay: as above; conditions: application rate 320 g/ha
How it was run: as §3

Lolium rigidum [20] = assay: as above; conditions: application rate 320 g/ha
How it was run: as §3

Matricaria inodora [21] = assay: as above; conditions: scored after about 3 weeks
How it was run: as §3

Pharbitis purpurea [22] = assay: as above; conditions: application rate 320 g/ha
How it was run: as §3

Setaria viridis [23] = assay: as above; conditions: application rate 320 g/ha, scored after about 3 weeks
How it was run: as §3

Stellaria media [24] = assay: as above; conditions: application rate 320 g/ha, scored after about 3 weeks
How it was run: as §3

Veronica persica [25] = assay: as above
How it was run: as §3

Viola tricolor [26] = assay: as above; conditions: scored after about 3 weeks
How it was run: as §3

Glycine max [27] = assay: Crop compatibility pre-emergence (greenhouse pot trial); conditions: effect vs untreated controls
How it was run: (§4)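 Pre-emergence: seeds sown in pots, covered with soil, then WP or EC formulations sprayed on soil surface as aqueous suspension/emulsion with 0.5% additive at 600 L/ha water. Greenhouse; crop damage scored visually as % versus untreated controls after about 3 weeks (100% = dead).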

Oryza sativa [28] = assay: as above; conditions: application rate 20 g/ha, effect vs untreated controls
How it was run: as §4

Zea mays [29] = assay: as above; conditions: effect vs untreated controls
How it was run: as §4

Polygonum convolvulus [30] = assay: Herbicidal action pre-emergence (greenhouse pot trial); conditions: application rate 80 g/ha, scored after about 3 weeks
How it was run: as §3

Which “Abutilon theophrasti (Efficacy in %)” value (Abutilon theophrasti [1]; application rate 80 g/ha) does the source give for `CC(Sc1cc(-n2c(=O)cc(C(F)(F)F)n(C)c2=O)c(F)cc1Cl)C(=O)NCC1CCCO1` (centres unmarked) [I.1-271] here?
The value was 100%.

And the “Alopecurus myosuroides (Efficacy in %)” value (Alopecurus myosuroides [2])?
The value was 100%.

What about the “Amaranthus retroflexus (Efficacy in %)” value (Amaranthus retroflexus [3]; application rate 80 g/ha) of the same compound?
The value was 100%.

And the “Echinochloa crus-galli (Efficacy in %)” value (Echinochloa crus-galli [4])?
Its value is 90%.

And the “Lolium rigidum (Efficacy in %)” value (Lolium rigidum [5])?
Its value is 100%.

What about the “Matricaria inodora (Efficacy in %)” value (Matricaria inodora [6]; application rate 80 g/ha) of the same compound?
The value was 100%.

What about the “Pharbitis purpurea (Efficacy in %)” value (Pharbitis purpurea [7]) of the same compound?
The value was 100%.

And the “Polygonum convolvulus (Efficacy in %)” value (Polygonum convolvulus [8]; application rate 80 g/ha)?
The value was 100%.

And the “Setaria viridis (Efficacy in %)” value (Setaria viridis [9])?
Its value is 100%.

What about the “Stellaria media (Efficacy in %)” value (Stellaria media [10]) of the same compound?
The value was 100%.

What about the “Veronica persica (Efficacy in %)” value (Veronica persica [11]; application rate 80 g/ha) of the same compound?
The value was 100%.

What about the “Viola tricolor (Efficacy in %)” value (Viola tricolor [12]; application rate 80 g/ha) of the same compound?
Its value is 100%.

And the “Glycine max (Efficacy in %)” value (Glycine max [13])?
The value was 20%.

What about the “Oryza sativa (Efficacy in %)” value (Oryza sativa [14]) of the same compound?
Its value is 10%.

And the “Triticum aestivum (Efficacy in %)” value (Triticum aestivum)?
The value was 20%.

What about the “Zea mays (Efficacy in %)” value (Zea mays [15]) of the same compound?
Its value is 10%.

And the “Abutilon theophrasti (Efficacy in %)” value (Abutilon theophrasti [16]; application rate 320 g/ha)?
Its value is 100%.

What about the “Alopecurus myosuroides (Efficacy in %)” value (Alopecurus myosuroides [17]) of the same compound?
The value was 100%.

And the “Amaranthus retroflexus (Efficacy in %)” value (Amaranthus retroflexus [18]; application rate 320 g/ha)?
The value was 100%.

And the “Avena fatua (Efficacy in %)” value (Avena fatua)?
Its value is 100%.

What about the “Cyperus esculentus (Efficacy in %)” value (Cyperus esculentus) of the same compound?
Its value is 80%.

And the “Echinochloa crus-galli (Efficacy in %)” value (Echinochloa crus-galli [19])?
The value was 100%.

What about the “Hordeum murinum (Efficacy in %)” value (Hordeum murinum) of the same compound?
The value was 100%.

And the “Lolium rigidum (Efficacy in %)” value (Lolium rigidum [20])?
Its value is 100%.

What about the “Matricaria inodora (Efficacy in %)” value (Matricaria inodora [21]; application rate 320 g/ha) of the same compound?
Its value is 100%.

And the “Pharbitis purpurea (Efficacy in %)” value (Pharbitis purpurea [22])?
Its value is 100%.

What about the “Setaria viridis (Efficacy in %)” value (Setaria viridis [23]) of the same compound?
The value was 100%.

What about the “Stellaria media (Efficacy in %)” value (Stellaria media [24]) of the same compound?
The value was 100%.

And the “Veronica persica (Efficacy in %)” value (Veronica persica [25]; application rate 320 g/ha)?
Its value is 100%.

And the “Viola tricolor (Efficacy in %)” value (Viola tricolor [26]; application rate 320 g/ha)?
The value was 100%.

What about the “Glycine max (Efficacy in %)” value (Glycine max [27]; application rate 20 g/ha) of the same compound?
The value was 10%.

What about the “Oryza sativa (Efficacy in %)” value (Oryza sativa [28]) of the same compound?
Its value is 20%.

And the “Zea mays (Efficacy in %)” value (Zea mays [29]; application rate 20 g/ha)?
Its value is 0%.

Which results are given for `CC(Sc1cc(-n2c(=O)cc(C(F)(F)F)n(C)c2=O)c(F)cc1Cl)C(=O)OCC1CCCS1` (centres unmarked) [I.1-81]?
Abutilon theophrasti (Efficacy in %) (Abutilon theophrasti [1]; application rate 20 g/ha): 100%; Amaranthus retroflexus (Efficacy in %) (Amaranthus retroflexus [3]; application rate 20 g/ha): 100%; Matricaria inodora (Efficacy in %) (Matricaria inodora [6]; application rate 20 g/ha): 90%; Polygonum convolvulus (Efficacy in %) (Polygonum convolvulus [8]; application rate 20 g/ha): 90%; Veronica persica (Efficacy in %) (Veronica persica [11]; application rate 20 g/ha): 100%; Viola tricolor (Efficacy in %) (Viola tricolor [12]; application rate 20 g/ha): 100%; Oryza sativa (Efficacy in %) (Oryza sativa [14]): 0%; Triticum aestivum (Efficacy in %) (Triticum aestivum): 20%; Zea mays (Efficacy in %) (Zea mays [15]): 10%; Abutilon theophrasti (Efficacy in %) (Abutilon theophrasti [16]; application rate 80 g/ha): 100%; Amaranthus retroflexus (Efficacy in %) (Amaranthus retroflexus [18]; application rate 80 g/ha): 100%; Matricaria inodora (Efficacy in %) (Matricaria inodora [21]; application rate 80 g/ha): 80%; Polygonum convolvulus (Efficacy in %) (Polygonum convolvulus [30]): 100%; Veronica persica (Efficacy in %) (Veronica persica [25]; application rate 80 g/ha): 80%; Viola tricolor (Efficacy in %) (Viola tricolor [26]; application rate 80 g/ha): 100%; Glycine max (Efficacy in %) (Glycine max [27]; application rate 80 g/ha): 0%; Zea mays (Efficacy in %) (Zea mays [29]; application rate 80 g/ha): 0%
